Reference: patent US12448393B2, “Use of novel compound, for preventing, improving or treating amyotrophic lateral sclerosis” (PRG S&TECH INC., priority 2019, dated 2025)
Read-outs that look alike come from different tables or passages of the source.

Legend:
SOD1 [1] = experiment: Immunofluorescence staining of SOD1 aggregation and misfolded SOD1; assay type: cell-based, human; conditions: Table 1; IF staining of SOD1
Experimental: Cells on coverslip were washed with PBS, fixed with 4% PFA at room temperature for 30 minutes, and then infiltrated with 0.1% Triton X-100/PBS for 10 minutes. The cells were treated with blocking solution (anti-Human Antibody 1:500 dilution in PBS) for 1 hour, and then cells were reacted with anti-pan SOD1 (1:400 dilution), misfolded SOD1 (B8H10; 1:200 dilution in blocking solution) at 4° C. overnight. Finally, the cells were reacted with FITC and rhodamine-conjugated secondary antibody at 4° C. for 6 hours. Nuclei were stained with 4,6-diamidino-2-phenylindole (DAPI), and endoplasmic reticula (ERs) were stained with ER-Tracker Red dye for 10 minutes. The cells were washed 3 times with PBS, and then coverslips were mounted with mounting solution [H-5501; Vector Laboratories (Burlingame, CA, USA)] and analyzed by fluorescence microscopy (Zeiss).
(§1) GFP-SOD1 (WT, G85R, G93A), non-tagged SOD1 (WT, A4V, G37R, G85R, G93A) and tdTomato-TDP43 expression vectors were purchased from Addgene (Cambridge, MA, USA). Transfection was performed using Jet-PEI reagent (JetPEI; Polyplus transfection, New York, NY, USA) according to the manufacturer's protocol. Briefly, vectors were mixed with JetPEI reagent in 150 mM NaCl buffer, and then mixture was reacted for 15 minutes. The mixture was added to cells in serum-free medium and reacted for 4 hours. After reaction, the cells were replaced with a culture medium supplemented with 10% FBS.

SOD1 [2] = experiment: Western blot / native gel analysis of SOD1 aggregation; assay type: cell-based, human; conditions: Table 1; effect on SOD1 aggregation, native / non-SDS-PAGE gel
Experimental: Using RIPA buffer (50 mM Tris-Cl, pH 7.5, 150 mM NaCl, 1% NP-40, 0.1% SDS and […]) for SDS-PAGE and lysis buffer (50 mM Tris-Cl, pH 7.5, 150 mM NaCl, 0.3% NP-40) for Native-PAGE, proteins were extracted from cells. Samples were separated by the SDS-PAGE or the Native-PAGE and transferred to PVDF membrane. Blotted membrane was blocked with TBST buffer including 3% skim milk for 1 hour, and reacted with specific antibodies. The reacted antibodies were detected by ECL and X-ray film exposure. Antibodies used in the present disclosure are as follows: pan-SOD1 (GTX100554) was purchased from Genetex (California, USA). Misfolded SOD1-specific antibody (B8H10) was purchased from MediMabs (Montreal, Canada). Actin (sc-1616), GST (sc-138), and GFP (Green fluorescent protein; sc-8036) were purchased from Santa Cruz biotechnology (Santa Cruz, CA, USA). TDP-43 antibody (10782-2-AP) was purchased from Proteintech (Rosemont, IL, USA). Anti-FLAG (Sigma; F3165) was purchased from Sigma Aldrich (St, Louis, Mo, USA), and HRP-conjugated goat anti-mouse, goat anti-rabbit, and mouse anti-goat antibodies (Pierce, Thermo Fisher Scientific, Inc., Rockford, IL, USA) were used as secondary antibodies.
as §1

normal human fibroblasts = experiment: Cell viability measurement (MTT), normal fibroblasts; assay type: cell-based; conditions: Table 1; cell type not given, neurons (FIG. 9A) and normal fibroblasts (FIG. 9B)
Experimental: HEK293 cells were purchased from American Type Culture Collection (ATCC, Manassas, VA, USA) and maintained at 37° C. and 5% CO2 in DMEM liquid medium including 10% fetal bovine serum and 1% penicillin-streptomycin. SK—N—SH cells were purchased from Korean Cell Line Bank (KCLB, Seoul, South Korea) and maintained in MEM medium including 10% fetal bovine serum, 1% antibiotic, 25 mM HEPES, and 300 mg/L L-Glu. Human fibroblasts (person) were purchased from Coriell Cell Repositories (New Jersey, USA) and maintained in EMEM including 15% FBS, 2 mM Glutamine, and 26 mM HEPES without antibiotics. Thapsigargin (ER calcium scavenger: CAS 67526-95-8) was purchased from Calbiochem (Darmstadt, Germany). CoCl2 (hypoxia-inducer: C8661) was purchased from Sigma Aldrich (St, Louis, Mo, USA).
To check cells viability, the cells were reacted with 0.5 mg/ml MTT solution (475989; Merck, Darmstadt, Germany) at 37° C. for 4 hours. After removing residual solution and washing with PBS, precipitate was dissolved in 200 μl DMSO, and quantified by measuring absorbance at 540 nm.

[3] = test system: WT-SOD1 and mutant SOD1-GST (A4V, G37R, G85R, G93A); experiment: ELISA compound screening for binding inhibitor between WT-SOD1 and mutant SOD1; design: species or system human; conditions: Table 1; compounds at final concentration of 50 μM
Experimental: For compound screening, the present inventors applied an ELISA assay system. To select a binding inhibitor between WT-SOD1 and mutant SOD1, the present inventors used 0.5% paraformaldehyde (PFA) to fix WT-SOD1 recombinant protein on a 96-well plate. The plate was dried, washed with phosphate-buffered saline (PBS), and reacted with the compounds at a final concentration of 50 μM, and then mutant SOD1-GST (A4V, G37R, G85R, G93A) proteins were added. After 2 hours of reaction, the 96-well plate was washed with PBS and blocked with 3% skim milk to prevent non specific reaction. The plate was reacted with anti-GST antibody (diluted at 1:10,000) for 1 hour, and then reacted with anti-mouse IgG-HRP (diluted at 1:50,000) for 1 hour. After washing twice, the plate was reacted with a 3,3′,5,5′-tetramethylbenzidine (TMB) solution (Calbiochem) for 30 minutes and a stop solution (1N H2SO4) for 30 minutes. Finally, the present inventors analyzed values using an ELISA reader (450 nm absorbance). Negative control (−; red line) was reacted without mutant SOD1, and positive control (+; blue line) was reacted with mutant SOD1 without the compounds.
To prepare recombinant proteins, human SOD1 (WT, A4V, G37R, G85R, G93A) was added to EcoRI and HindIII sites of pGEX-TEV vector, an improved vector made by adding a TEV protease cleavage site to pGEX-4T1 (Invitrogen). The recombinant proteins were expressed as GST-fusion proteins in Escherichia coli (E. coli) strain BL21 (DE3). The proteins were purified by glutathione-affinity chromatography.

WT-SOD1 = WT-SOD1 aggregation by cellular stress; assay type: cell-based

| ELISA [3] | Structure (SMILES) | Immuno-fluorscence (SOD1 [1]) | Western Blot (SOD1 [2]) | Toxicity (MTT) (normal human fibroblasts) | SOD1 aggregation under cellular stress agents (WT-SOD1; FIG. 1C, 1D, FIG. 2) | SOD1 aggregation under cellular stress agents (WT-SOD1) |
| --- | --- | --- | --- | --- | --- | --- |
| Effect x | CC1(C)Oc2cc3oc(=O)ccc3cc2C[C@@H]1OC(=O)/C=C/c1ccncc1 [SNU-C9, (S)-8,8-dimethyl-2-oxo-7,8-dihydro-2H,6H-pyrano[3,2-g]chromen-7-yl (E)-3-(pyridin-4-yl) acrylate] | Effect ○ | Effect ○ | No | – | – |
| – | C[N+](C)(C)CCO.C[N+](C)(C)CCO.[SH-].[SH-].[S]=[Mo]=[S] [ATN-224] | – | – | – | induced the WT-SOD1 aggregation | – |
| – | c1ccc(CN(CCN(Cc2ccccn2)Cc2ccccn2)Cc2ccccn2)nc1 [TPEN] | – | – | – | induced the WT-SOD1 aggregation | – |
| Effect x | COc1cc(CCC(=O)O[C@H]2Cc3cc4ccc(=O)oc4cc3OC2(C)C)ccc1O [SNU-C4, (S)-8,8-dimethyl-2-oxo-7,8-dihydro-2H,6H-pyrano[3,2-g]chromen-7-yl 3-(4-hydroxy-3-methoxyphenyl) propanoate] | Effect x | Effect x | No | – | – |
| Effect ○ | CC1(C)Oc2cc3oc(=O)ccc3cc2C[C@@H]1OC(=O)/C=C/c1cccc(O)c1 [SNU-C10, (S)-8,8-dimethyl-2-oxo-7,8-dihydro-2H,6H-pyrano[3,2-g]chromen-7-yl (E)-3-(3-hydroxyphenyl) acrylate] | Effect ○ | Effect ○ | No | – | – |
| Effect x | COc1ccc(CCC(=O)O[C@H]2Cc3cc4ccc(=O)oc4cc3OC2(C)C)cc1OC [SNU-C7, (S)-8,8-dimethyl-2-oxo-7,8-dihydro-2H,6H-pyrano[3,2-g]chromen-7-yl 3-(3,4-dimethoxyphenyl) propanoate] | Effect x | Effect x | No | – | – |
| Effect ○ | COc1ccc(/C=C/C(=O)O[C@H]2Cc3cc4ccc(=O)oc4cc3OC2(C)C)cc1OC [SNU-C5, (S)-8,8-dimethyl-2-oxo-7,8-dihydro-2H,6H-pyrano[3,2-g]chromen-7-yl (E)-3-(3,4-dimethoxyphenyl) acrylate] | Effect x | Effect x | No | – | – |
| – | COc1cc(/C=C/C(=O)O[C@H]2Cc3cc4ccc(=O)oc4cc3OC2(C)C)ccc1OC(C)=O [SNU-C17, (S)-8,8-dimethyl-2-oxo-7,8-dihydro-2H,6H-pyrano[3,2-g]chromen-7-yl (E)-3-(4-acetoxy-3-methoxyphenyl) acrylate] | Effect ○ | Effect ○ | – | – | – |
| – | CC1(C)Oc2cc3oc(=O)ccc3cc2C[C@@H]1OC(=O)/C=C/c1ccc(F)c(F)c1 [SNU-C18, (S)-8,8-dimethyl-2-oxo-7,8-dihydro-2H,6H-pyrano[3,2-g]chromen-7-yl (E)-3-(3,4-difluorophenyl) acrylate] | Effect ○ | Effect ○ | Toxic | – | – |
| – | CC1(C)Oc2cc3oc(=O)ccc3cc2C[C@@H]1OC/C=C/c1ccc(F)cc1 [SNU-C13, (S,E)-7-((3-(4-fluorophenyl)allyl)oxy)-8,8-dimethyl-7,8-dihydro-2H,6H-pyrano[3,2-g]chromen-2-one] | – | Effect x | – | – | – |
| – | C/C=C(/C)C(=O)O[C@H]1C(C)=C2[C@H]([C@@H]1OC(=O)CCCCCCC)[C@@](C)(OC(C)=O)C[C@H](OC(=O)CCC)[C@@]1(O)[C@H]2OC(=O)[C@@]1(C)O [Thapsigargin] | – | – | – | promoted the WT-SOD1 aggregation | – |
| – | [Cl-].[Cl-].[Co+2] [CoCl2] | – | – | – | – | SOD1 aggregation and increase of misfolded SOD1 |

| Structure (SMILES) | ELISA [3] | Immuno-fluorscence (SOD1 [1]) | Western Blot (SOD1 [2]) | Toxicity (MTT) (normal human fibroblasts) | SOD1 aggregation under cellular stress agents (WT-SOD1; FIG. 1C, 1D, FIG. 2) | SOD1 aggregation under cellular stress agents (WT-SOD1) |
| --- | --- | --- | --- | --- | --- | --- |
| COc1cc(CCC(=O)O[C@H]2Cc3cc4ccc(=O)oc4cc3OC2(C)C)ccc1OC(C)=O [SNU-C15, (S)-8,8-dimethyl-2-oxo-7,8-dihydro-2H,6H-pyrano[3,2-g]chromen-7-yl 3-(4-acetoxy-3-methoxyphenyl) propanoate] | Effect x | Effect ○ | Effect ○ | No | – | – |
| CC(=O)Oc1cccc(/C=C/C(=O)O[C@H]2Cc3cc4ccc(=O)oc4cc3OC2(C)C)c1 [SNU-C14, (S)-8,8-dimethyl-2-oxo-7,8-dihydro-2H,6H-pyrano[3,2-g]chromen-7-yl (E)-3-(3-acetoxyphenyl) acrylate] | Effect ○ | Effect ○ | Effect ○ | No | – | – |
